Results reported in patent US10004701B2, “Methods and compositions for treating infection” (UNIVERSITY OF ROCHESTER, priority 2012, dated 2018).
Where a name gives a salt, the structure may show the parent alone. Read-outs that look alike come from different tables or passages of the source.

Tests used:
Assay in all cases: AK assay 384-well format, Prestwick library screening
[1] = tested on: E. cloacae; type: cell-based, Enterobacter cloacae; settings: 50 μM final drug concentration; for fold induction at 50 µM: Enterobacter cloacae, 3 h
[2] = tested on: P. aeruginosa; type: cell-based, Pseudomonas aeruginosa; settings: 50 μM final drug concentration; for fold induction at 50 µM: Pseudomonas aeruginosa, 3 h
[3] = tested on: E. coli; type: cell-based, Escherichia coli; settings: 50 μM final drug concentration; for fold induction at 50 µM: Escherichia coli, 3 h
[4] = tested on: A. baumannii strain 98-37-09; type: cell-based, Acinetobacter baumannii; settings: 50 μM final drug concentration; for fold induction at 50 µM: Acinetobacter baumannii, 983709, 3 h
[5] = tested on: K. pneumoniae; type: cell-based, Klebsiella pneumoniae; settings: 50 μM final drug concentration; for fold induction at 50 µM: Klebsiella pneumoniae, 3 h
[6] = tested on: E. faecium; type: cell-based, Enterococcus faecium; settings: 50 μM final drug concentration; for fold induction at 50 µM: Enterococcus faecium, 3 h
[7] = tested on: S. aureus strain USA300-0114; type: cell-based, Staphylococcus aureus; settings: 50 μM final drug concentration; for fold induction at 50 µM: Staphylococcus aureus, USA300, 3 h
[8] = planktonic, cutoff for positive 3-fold increase
[9] = cutoff for positive-scoring molecules 3-fold increase, read-out: AK-based Prestwick Library Screening Results, E. cloacae (fold increase in extracellular AK activity)
[10] = cutoff for positive-scoring molecules 3-fold increase, read-out: AK-based Prestwick Library Screening Results, P. aeruginosa (fold increase in extracellular AK activity)
[11] = cutoff for positive-scoring molecules 3-fold increase, read-out: AK-based Prestwick Library Screening Results, E. coli (fold increase in extracellular AK activity)
[12] = cutoff for positive-scoring molecules 3-fold increase, read-out: AK-based Prestwick Library Screening Results, A. baumannii (fold increase in extracellular AK activity)
[13] = cutoff for positive-scoring molecules 3-fold increase, read-out: AK-based Prestwick Library Screening Results, K. pneumoniae (fold increase in extracellular AK activity)
[14] = cutoff for positive-scoring molecules 3-fold increase, read-out: AK-based Prestwick Library Screening Results, E. faecium (fold increase in extracellular AK activity)
[15] = cutoff for positive-scoring molecules 3-fold increase, read-out: AK-based Prestwick Library Screening Results, S. aureus (fold increase in extracellular AK activity)
[16] = 384-well format, cutoff for positive-scoring molecules 3-fold increase

Question: Which results are given for C[N+]1(C)CCC[C@H]1C(=O)[O-].Cl [Stachydrine hydrochloride]?
Answer: AK-based Prestwick Library Screening Results, E. cloacae (fold increase in extracellular AK activity) [1, 8]: 1.5; AK-based Prestwick Library Screening Results, P. aeruginosa (fold increase in extracellular AK activity) [2, 8]: 1.2; AK-based Prestwick Library Screening Results, E. coli (fold increase in extracellular AK activity) [3, 8]: 1.4; AK-based Prestwick Library Screening Results, A. baumannii (fold increase in extracellular AK activity) [4, 8]: 1.4; AK-based Prestwick Library Screening Results, K. pneumoniae (fold increase in extracellular AK activity) [5, 8]: 1.1; AK-based Prestwick Library Screening Results, E. faecium (fold increase in extracellular AK activity) [6, 8]: 1.0; AK-based Prestwick Library Screening Results, S. aureus (fold increase in extracellular AK activity) [7, 8]: 1.0

Question: What does the source list for [H]/N=C(/N)N[C@H]1[C@H](O)[C@@H](O)[C@H](O[C@@H]2O[C@@H](C)[C@](O)(C=O)[C@H]2O[C@@H]2O[C@@H](CO)[C@H](O)[C@@H](O)[C@@H]2NC)[C@@H](N/C(N)=N\[H])[C@@H]1O [Streptomycin sulfate]?
Answer: fold induction at 50 µM ([1]; planktonic E. cloacae, 384-well, cutoff for positive-scoring molecules 3-fold increase, read-out: AK-based Prestwick Library Screening Results: E. cloacae (increase in extracellular AK activity)): 0.3; fold induction at 50 µM ([2]; planktonic P. aeruginosa, 384-well, cutoff for positive-scoring molecules 3-fold increase, read-out: AK-based Prestwick Library Screening Results: P. aeruginosa (increase in extracellular AK activity)): 0.4; fold induction at 50 µM ([3]; planktonic E. coli, 384-well, cutoff for positive-scoring molecules 3-fold increase, read-out: AK-based Prestwick Library Screening Results: E. coli (increase in extracellular AK activity)): 0.5; fold induction at 50 µM ([4]; planktonic A. baumannii, 384-well, cutoff for positive-scoring molecules 3-fold increase, read-out: AK-based Prestwick Library Screening Results: A. baumannii (increase in extracellular AK activity)): 0.4; fold induction at 50 µM ([5]; planktonic K. pneumoniae, 384-well, cutoff for positive-scoring molecules 3-fold increase, read-out: AK-based Prestwick Library Screening Results: K. pneumoniae (increase in extracellular AK activity)): 0.3; fold induction at 50 µM ([6]; planktonic E. faecium, 384-well, cutoff for positive-scoring molecules 3-fold increase, read-out: AK-based Prestwick Library Screening Results: E. faecium (increase in extracellular AK activity)): 0.9; fold induction at 50 µM ([7]; planktonic S. aureus, 384-well, cutoff for positive-scoring molecules 3-fold increase, read-out: AK-based Prestwick Library Screening Results: S. aureus (increase in extracellular AK activity)): 0.4

Question: What does the source list for C[C@]12CC[C@H]3[C@@H](CC[C@]4(O)C[C@@H](O)CC[C@]34C=O)[C@@]1(O)CC[C@@H]2C1=CC(=O)OC1 [Strophanthidin]?
Answer: fold induction at 50 µM ([1]; […], read-out: AK-based Prestwick Library Screening Results, E. cloacae (fold increase in extracellular AK activity)): 1.3; fold induction at 50 µM ([2]; […], read-out: AK-based Prestwick Library Screening Results, P. aeruginosa (fold increase in extracellular AK activity)): 1.1; fold induction at 50 µM ([3]; […], read-out: AK-based Prestwick Library Screening Results, E. coli (fold increase in extracellular AK activity)): 1.4; fold induction at 50 µM ([4]; […], read-out: AK-based Prestwick Library Screening Results, A. baumannii (fold increase in extracellular AK activity)): 1.3; fold induction at 50 µM ([5]; […], read-out: AK-based Prestwick Library Screening Results, K. pneumoniae (fold increase in extracellular AK activity)): 1.1; fold induction at 50 µM ([6]; […], read-out: AK-based Prestwick Library Screening Results, E. faecium (fold increase in extracellular AK activity)): 1; fold induction at 50 µM ([7]; […], read-out: AK-based Prestwick Library Screening Results, S. aureus (fold increase in extracellular AK activity)): 1.3

Question: C[C@@H]1O[C@@H](O[C@H]2C[C@@H](O)[C@]3(CO)[C@H]4[C@H](O)C[C@]5(C)[C@@H](C6=CC(=O)OC6)CC[C@]5(O)[C@@H]4CC[C@]3(O)C2)[C@H](O)[C@H](O)[C@H]1O.O.O.O.O.O.O.O.O [Strophantine octahydrate] was tested. Which “AK-based Prestwick Library Screening Results, E. cloacae (fold increase in extracellular AK activity)” value ([1]; planktonic, […]) did it give?
Answer: 1.7

Question: And the “AK-based Prestwick Library Screening Results, P. aeruginosa (fold increase in extracellular AK activity)” value ([2]; planktonic, […])?
Answer: 1.1

Question: What about the “AK-based Prestwick Library Screening Results, E. coli (fold increase in extracellular AK activity)” value ([3]; planktonic, […]) of the same compound?
Answer: 1.2

Question: And the “AK-based Prestwick Library Screening Results, A. baumannii (fold increase in extracellular AK activity)” value ([4]; planktonic, […])?
Answer: 1.2

Question: What about the “AK-based Prestwick Library Screening Results, K. pneumoniae (fold increase in extracellular AK activity)” value ([5]; planktonic, […]) of the same compound?
Answer: 0.9

Question: What about the “AK-based Prestwick Library Screening Results, E. faecium (fold increase in extracellular AK activity)” value ([6]; planktonic, […]) of the same compound?
Answer: 1.0

Question: What about the “AK-based Prestwick Library Screening Results, S. aureus (fold increase in extracellular AK activity)” value ([7]; planktonic, […]) of the same compound?
Answer: 1.1

Question: For O=C(O)CCC(=O)Nc1ccc(S(=O)(=O)Nc2nccs2)cc1 [Succinylsulfathiazole], which fold induction at 50 µM [1, 9] is on record?
Answer: 1.4

Question: What about the fold induction at 50 µM [2, 10] of the same compound?
Answer: 1.1

Question: And the fold induction at 50 µM [3, 11]?
Answer: 1.4

Question: And the fold induction at 50 µM [4, 12]?
Answer: 1.3

Question: What about the fold induction at 50 µM [5, 13] of the same compound?
Answer: 1.1

Question: And the fold induction at 50 µM [6, 14]?
Answer: 1

Question: And the fold induction at 50 µM [7, 15]?
Answer: 1.3

Question: What does the source list for Nc1ccc(S(=O)(=O)NC(=O)c2ccccc2)cc1 [Sulfabenzamide]?
Answer: fold induction at 50 µM [1, 9]: 1.6; fold induction at 50 µM [2, 10]: 1.1; fold induction at 50 µM [3, 11]: 1.1; fold induction at 50 µM [4, 12]: 2.8; fold induction at 50 µM [5, 13]: 1.1; fold induction at 50 µM [6, 14]: 1.1; fold induction at 50 µM [7, 15]: 1.2

Question: What does the source list for CC(=O)[N-]S(=O)(=O)c1ccc(N)cc1.O.[Na+] [Sulfacetamide sodic hydrate]?
Answer: AK-based Prestwick Library Screening Results, E. cloacae (increase in extracellular AK activity) [1, 16]: 0.7; AK-based Prestwick Library Screening Results, P. aeruginosa (increase in extracellular AK activity) [2, 16]: 0.5; AK-based Prestwick Library Screening Results, E. coli (increase in extracellular AK activity) [3, 16]: 0.6; AK-based Prestwick Library Screening Results, A. baumannii (increase in extracellular AK activity) [4, 16]: 2.2; AK-based Prestwick Library Screening Results, K. pneumoniae (increase in extracellular AK activity) [5, 16]: 0.5; AK-based Prestwick Library Screening Results, E. faecium (increase in extracellular AK activity) [6, 16]: 0.9; AK-based Prestwick Library Screening Results, S. aureus (increase in extracellular AK activity) [7, 16]: 0.7

Question: For Nc1ccc(S(=O)(=O)Nc2ccc(Cl)nn2)cc1 [Sulfachloropyridazine], which fold induction at 50 µM [1, 9] is on record?
Answer: 1.5

Question: What about the fold induction at 50 µM [2, 10] of the same compound?
Answer: 1

Question: What about the fold induction at 50 µM [3, 11] of the same compound?
Answer: 1

Question: What about the fold induction at 50 µM [4, 12] of the same compound?
Answer: 2.1

Question: What about the fold induction at 50 µM [5, 13] of the same compound?
Answer: 1.1

Question: What about the fold induction at 50 µM [6, 14] of the same compound?
Answer: 1

Question: What about the fold induction at 50 µM [7, 15] of the same compound?
Answer: 1.1

Question: What does the source list for Nc1ccc(S(=O)(=O)Nc2ncccn2)cc1 [Sulfadiazine]?
Answer: fold induction at 50 µM ([1]; 384-well format, cutoff for positive-scoring molecules 3-fold increase, read-out: AK-based Prestwick Library Screening Results, E. cloacae (increase in extracellular AK activity)): 0.9; fold induction at 50 µM ([2]; 384-well format, cutoff for positive-scoring molecules 3-fold increase, read-out: AK-based Prestwick Library Screening Results, P. aeruginosa (increase in extracellular AK activity)): 0.8; fold induction at 50 µM ([3]; 384-well format, cutoff for positive-scoring molecules 3-fold increase, read-out: AK-based Prestwick Library Screening Results, E. coli (increase in extracellular AK activity)): 1; fold induction at 50 µM ([4]; 384-well format, cutoff for positive-scoring molecules 3-fold increase, read-out: AK-based Prestwick Library Screening Results, A. baumannii (increase in extracellular AK activity)): 1.2; fold induction at 50 µM ([5]; 384-well format, cutoff for positive-scoring molecules 3-fold increase, read-out: AK-based Prestwick Library Screening Results, K. pneumoniae (increase in extracellular AK activity)): 0.7; fold induction at 50 µM ([6]; 384-well format, cutoff for positive-scoring molecules 3-fold increase, read-out: AK-based Prestwick Library Screening Results, E. faecium (increase in extracellular AK activity)): 0.8; fold induction at 50 µM ([7]; 384-well format, cutoff for positive-scoring molecules 3-fold increase, read-out: AK-based Prestwick Library Screening Results, S. aureus (increase in extracellular AK activity)): 0.7

Question: Which results are given for COc1cc(NS(=O)(=O)c2ccc(N)cc2)nc(OC)n1 [Sulfadimethoxine]?
Answer: fold induction at 50 µM ([1]; planktonic, cutoff for positive-scoring molecules 3-fold increase, read-out: AK-based Prestwick Library Screening Results, E. cloacae (fold increase in extracellular AK activity)): 0.4; fold induction at 50 µM ([2]; planktonic, cutoff for positive-scoring molecules 3-fold increase, read-out: AK-based Prestwick Library Screening Results, P. aeruginosa (fold increase in extracellular AK activity)): 0.4; fold induction at 50 µM ([3]; planktonic, cutoff for positive-scoring molecules 3-fold increase, read-out: AK-based Prestwick Library Screening Results, E. coli (fold increase in extracellular AK activity)): 0.6; fold induction at 50 µM ([4]; planktonic, cutoff for positive-scoring molecules 3-fold increase, read-out: AK-based Prestwick Library Screening Results, A. baumannii (fold increase in extracellular AK activity)): 0.9; fold induction at 50 µM ([5]; planktonic, cutoff for positive-scoring molecules 3-fold increase, read-out: AK-based Prestwick Library Screening Results, K. pneumoniae (fold increase in extracellular AK activity)): 0.5; fold induction at 50 µM ([6]; planktonic, cutoff for positive-scoring molecules 3-fold increase, read-out: AK-based Prestwick Library Screening Results, E. faecium (fold increase in extracellular AK activity)): 0.9; fold induction at 50 µM ([7]; planktonic, cutoff for positive-scoring molecules 3-fold increase, read-out: AK-based Prestwick Library Screening Results, S. aureus (fold increase in extracellular AK activity)): 0.5
